Source: patent US5998406A, “Oxazolidinone derivatives and pharmaceutical compositions” (Pharmacia & Upjohn Company, priority 1998, dated 1999)
≈ marks a conversion by molar mass, not a printed value.

Key:
Assay type in all cases: cell-based
[1] = tested on: E. faecalis, culture 9217; assay: MIC, standard agar dilution, E. faecalis culture 9217; conditions: Enterococcus faecalis, CULTURE9217, Mueller Hinton agar, overnight at 35 C, read-out: EFAE 9217 MIC
Procedure: (§1) The in vitro MICs of test compounds are determined by a standard agar dilution method. A stock drug solution of each analog is prepared in the preferred solvent, usually DMSO:H2 O(1:3). Serial 2-fold dilutions of each sample are made using 1.0 ml aliquots of sterile distilled water. To each 1.0 ml aliquot of drug is added 9 ml of molten Mueller Hinton agar medium. The drug-supplemented agar is mixed, poured into 15×100 mm petri dishes, and allowed to solidify and dry prior to inoculation.
(§2) Vials of each of the test organisms are maintained frozen in the vapor phase of a liquid nitrogen freezer. Test cultures are grown overnight at 35 C. on the medium appropriate for the organism. Colonies are harvested with a sterile swab, and cell suspensions are prepared in Trypticase Soy broth (TSB) to equal the turbidity of a 0.5 McFarland standard. A 1:20 dilution of each suspension is made in TSB. The plates containing the drug supplemented agar are inoculated with a 0.001 ml drop of the cell suspension using a Steers replicator, yielding approximately 10^4 to 10^5 cells per spot. The plates are incubated overnight at 35 C.
(§3) Following incubation the Minimum Inhibitory Concentration (MIC μg/ml), the lowest concentration of drug that inhibits visible growth of the organism, is read and recorded.
^c) E. faecalis, culture 9217

[2] = tested on: S. aureus, culture 9213; assay: MIC, standard agar dilution, S. aureus culture 9213; conditions: Staphylococcus aureus, CULTURE9213, Mueller Hinton agar, overnight at 35 C, read-out: SAUR 9213 MIC
Procedure: as §1, §2, §3
^a) S. aureus, culture 9213

[3] = tested on: H. influenzae, culture 30063; assay: MIC, standard agar dilution, H. influenzae culture 30063; conditions: Haemophilus influenzae, CULTURE30063, Mueller Hinton agar, overnight at 35 C, read-out: HINF 30063 MIC
Procedure: as §1, §2, §3
^e) H. influenzae, culture 30063

[4] = tested on: S. pueumoniae, culture 9912; assay: MIC, standard agar dilution, S. pueumoniae culture 9912; conditions: Mueller Hinton agar, overnight at 35 C, read-out: SPNE 9912 MIC
Procedure: as §1, §2, §3
^d) S. pueumoniae, culture 9912

[5] = tested on: S. epidermidis, culture 12084; assay: MIC, standard agar dilution, S. epidermidis culture 12084; conditions: Staphylococcus epidermidis, CULTURE12084, Mueller Hinton agar, overnight at 35 C, read-out: SEPI 12084 MIC
Procedure: as §1, §2, §3
^b) S. epidermidis, culture 12084

[6] = tested on: M. catarrhalis, culture 30610; assay: MIC, standard agar dilution, M. catarrhalis culture 30610; conditions: Moraxella catarrhalis, CULTURE30610, Mueller Hinton agar, overnight at 35 C, read-out: MCAT 30610 MIC
Procedure: as §1, §2, §3
^f) M. catarrhalis, culture 30610

MIC [1] | MIC [2] | MIC [3] | MIC [4] | MIC [5] | MIC [6] | Compound
4 µg/mL (≈ 10.6 µM) | 4 µg/mL (≈ 10.6 µM) | 32 µg/mL (≈ 84.6 µM) | 1 µg/mL (≈ 2.64 µM) | 1 µg/mL (≈ 2.64 µM) | 8 µg/mL (≈ 21.1 µM) | CC(=O)NC[C@H]1CN(c2ccc(N3CCC(=O)N(C)CC3)c(F)c2)C(=O)O1 [Example 3, (S)-N-[[3-[3-fluoro-4-(1,2,3,4,6,7-hexahydro-4-methyl-5-oxo-1,4-diazepin-1-yl)phenyl]-2-oxo-5-oxazolidinyl]methyl]-acetamide]
4 µg/mL (≈ 11 µM) | 4 µg/mL (≈ 11 µM) | 8 µg/mL (≈ 22 µM) | 0.5 µg/mL (≈ 1.37 µM) | 1 µg/mL (≈ 2.74 µM) | 8 µg/mL (≈ 22 µM) | CC(=O)NC[C@H]1CN(c2ccc(N3CCNC(=O)CC3)c(F)c2)C(=O)O1 [Example 1, (S)-N-[[3-[3-fluoro-4-(1,2,3,4,6,7-hexahydro-5-oxo-1,4-diazepin-1-yl)phenyl]-2-oxo-5-oxazolidinyl]methyl]acetamide]
1 µg/mL (≈ 2.54 µM) | 1 µg/mL (≈ 2.54 µM) | 8 µg/mL (≈ 20.3 µM) | < 0.5 µg/mL | < 0.5 µg/mL | 2 µg/mL (≈ 5.07 µM) | CC(=S)NC[C@H]1CN(c2ccc(N3CCC(=O)N(C)CC3)c(F)c2)C(=O)O1 [Example 4, (S)-N-[[3-[3-fluoro-4-(1,2,3,4,6,7-hexahydro-4-methyl-5-oxo-1,4-diazepin-1-yl)phenyl]-2-oxo-5-oxazolidinyl]methyl]-thioacetamide]
